{"source": "patent US6310093A", "about": "(priority 1998, dated 2001)", "key": {"[1]": {"tested_on": "neuronal cultures", "assay": "Glutamate production by intact and damaged neuronal cultures with added glutamine", "format": "cell-based, mouse (Swiss Webster)", "conditions": "for Glutamate concentration (in words) / Glutamate production (S): 2 mM Gln", "experimental": "When 2 mM glutamine is added to intact neuronal cultures, the rate at which glutamate accumulates in the culture medium increases with time (FIG. 2). Since the clearance of medium glutamate by neuronal cultures is extremely slow, one estimate of the rate of glutamate production by neurons exposed to glutamine can be obtained from the initial rate of glutamate accumulation. Using the difference in glutamate concentrations at 1 and 15 min after glutamine addition, a value of 0.032±0.006 μM/min (12.8 pmol/min) was obtained. Since glutamine exposure itself eventually causes neuronal death and high rates of glutamine hydrolysis, this estimate of glutamate production should be viewed as an upper limit. However, this value is similar to that obtained by comparing glutamate production by glial and mixed neuronal-glial cultures exposed to glutamine (see below).\nIn the absence of added glutamine (i.e., in the 0.15 mM glutamine manufactured by the neuronal cultures), glutamate production into the medium of cultures lysed by freezing and thawing occurred at a rate of 0.035±0.006 μM/min (14 pmol/min). […] Thus, damaged neurons incubated in 2 mM glutamine produce within 6-8 min an amount equal to that released by freeze-thawing.\n(§1) Pre-column derivatization with o-phthalaldehyde (OPA, Sigma) and separation by reversed phase HPLC was used. A Gilson HPLC was fitted with a Hewlett-Packard model 1046A fluorimetric detector (excitation 340 nm, emission 420 nm). Medium was collected from cell culture at various times, and frozen at -80° C., prior to dilution of 5 or 10 μl into auto-sampler vials containing 40 or 45 μl dimethylformamide:water 1:3 (derivatives with 2-mercaptoethanol) or 1:9 (derivatives with N-acetyl-L-cysteine). For analysis of the derivatives formed with 2-mercaptoethanol, samples were reacted according to published methods (Newcomb, R. (1989) LC GC 7, 570-578; Lindroth, P., and Mopper. K., (1979) Anal. Chem. 51, 1667-1674.), and a gradient of 0-40% methanol in 1.25 mM sodium phosphate pH 6.2 over 20 min was used to elute the derivatives from a 4.5×250 mm Beckman Ultrasphere octadecylsilica column (dp 5 μm) at 1 ml/min. For analysis of the derivatives formed with N-acetyl-L-cysteine (Bruckner), samples were reacted with 25 μl of 1 mg/ml OPA, and 50 μl of 1 mg/ml N-acetyl-L-cysteine (Fluka) in 0.5 M potassium borate pH 10.0. Chromatography was carried out on a 4.5×250 mm Phenomonex Primesphere \"HC\" octadecylsilica column (dp 5 μm) using a gradient of 0-35% methanol in 15 mM sodium phosphate pH 6.2 (0.13% tetrahydrofuran) over 65 minutes at 1 ml/min. It was shown for each of the experimental conditions (ie. glial and control and damaged neuronal and mixed cultures) that both analytical systems gave results for glutamate and glutamine measurements which were, within error, identical.\nGlutamate concentrations were converted to units of pmol/μl of culture medium, or μM. In the absence of cellular uptake (ie, in damaged neuronal cultures), the rate of glutamate production was obtained directly from the measurements of the amounts of glutamate in culture medium at various times."}, "[2]": {"tested_on": "mixed glial-neuronal cultures", "assay": "Glutamate production in intact mixed glial-neuronal cultures with added glutamine", "format": "cell-based, mouse (Swiss Webster)", "experimental": "Added glutamate (15 μM) was rapidly cleared from the medium of the mixed glial-neuronal cultures (FIG. 1). The uptake again fit to a first order process and occurred with a rate constant of 0.072 min^-1. […] When the intact mixed cultures were maintained in the absence or presence of added 2 mM glutamine, they also maintained steady state concentrations of glutamate below 1 μM (0.37±0.06 μM and 0.83±0.47 μM respectively). Thus, from the steady state equation, the rates of glutamate production were estimated to be 0.027 μM/min (11 pmol/min) in the absence of added glutamine and 0.060 μM/min (24 pmol/min) in the presence of 2 mM glutamine.\nMeasurements of glutamate and glutamine concentrations, as well as of the release of the cytoplasmic marker enzyme, lactate dehydrogenase (LDH), were made with the medium of mixed neuronal-astrocyte cultures exposed to hypoxic and control conditions, with and without the addition of 2 mM glutamine. For comparative purposes, the measurements were made in mixed cultures in which complete neuronal death was caused by a 5h exposure to 500 μM NMDA. The first glutamate measurement was made at the end of hypoxia (5h with mixed cultures, 7h with astrocytes), and the second at 19 h after the subsequent return of oxygen. If added, glutamine was present during and after hypoxia. LDH released by the experimental treatment was measured at 24 h, and is expressed as a percentage of the total cellular content (neurons in mixed cultures, and glia in glial cultures). To verify the neuronal origin of LDH and glutamate, similar experiments were performed on cultures that only contained glia.\nas §1, with “Chromatography was carried out on a 4.5×250 mm Phenomonex Primesphere \"HC\" octadecylsilica column (dp 5 μm) using a gradient of 0-35% methanol in 15 mM sodium phosphate pH 6.2 (0.13% tetrahydrofuran) over 65 minutes at 1 ml/min. It was shown for each of the experimental conditions (ie. glial and control and damaged neuronal and mixed cultures) that both analytical systems gave results for glutamate and glutamine measurements which were, within error, identical.” left out\nIn cultures where glutamate concentrations are (within error) constant, d[Glu]/dt is close to zero, and cellular production of medium glutamate is balanced by its removal, such that glutamate production can be calculated from the steady state equation: […]\nCalculations were performed using the slopes of the regression lines which describe the rate constants for glutamate removal and the mean values for culture medium glutamate concentrations. […] For comparative purposes, glutamate production rates can be expressed as pmol of glutamate produced per min in each culture. […]"}, "[3]": {"tested_on": "pure neuronal cultures (cortical neurons) exposed to glutamine"}, "[4]": {"tested_on": "mixed neuronal-astrocyte cultures", "assay": "cells", "conditions": "Mus musculus"}, "[5]": {"conditions": "Table 2, glial-neuronal, 2 mM Gln"}}, "note": "Where two headings read alike, the source gives them in different places.", "data": [{"smiles": "NC(=O)CC[C@H](N)C(=O)O", "note": "[Gln, glutamine]", "values": [{"measurement": "glutamate production by damaged neurons vs intact neurons or glia", "setting": "[1]; 2 mM glutamine", "result": "10-30 fold"}, {"measurement": "Glutamate concentration (in words)", "setting": "[1]; NMDA-treated neurons", "result": "increases linearly"}, {"measurement": "Glutamate production (S)", "setting": "[1]; NMDA-treated neurons", "result": "0.54 ± 0.09", "unit": "µM/min"}, {"measurement": "glutamate production per culture", "setting": "[1]; NMDA-treated neurons, 2 mM glutamine", "result": 216, "unit": "pmol/min"}, {"measurement": "Glutamate concentration (in words)", "setting": "[1]; freeze-thaw damaged neurons", "result": "increases linearly"}, {"measurement": "Glutamate production (S)", "setting": "[1]; freeze-thaw damaged neurons", "result": "0.79 ± 0.08", "unit": "µM/min"}, {"measurement": "glutamate production per culture", "setting": "[1]; freeze-thawed neurons, 2 mM glutamine", "result": 316, "unit": "pmol/min"}, {"measurement": "Glutamate concentration (in words)", "setting": "[1]; intact neurons", "result": "increases"}, {"measurement": "Glutamate production (S)", "setting": "[1]; intact neurons", "result": "0.032 ± 0.006", "unit": "µM/min"}, {"measurement": "glutamate production per culture", "setting": "[1]; intact neurons, 2 mM glutamine", "result": 12.8, "unit": "pmol/min"}, {"measurement": "Glu", "setting": "[2]; 2 mM Gln, 5 h, mixed cultures, no hypoxia", "result": "0.83 ± 0.47", "unit": "µM"}, {"measurement": "cytotoxicity at 2000 µM", "setting": "[2]; Mus musculus, 24 h, read-out: % cell death (LDH)", "result": 17.6, "unit": "%"}, {"measurement": "Glutamate concentration", "setting": "[2]; [5]", "result": "0.83 ± 0.47"}, {"measurement": "Glutamate production (S)", "setting": "[2]; [5]", "result": 0.06}, {"measurement": "glutamate production per culture", "setting": "[2]; mixed, 2 mM glutamine", "result": 24, "unit": "pmol/min"}, {"measurement": "medium glutamate", "setting": "[3]", "result": "197 ± 23", "unit": "μM Glu"}, {"measurement": "cytotoxicity at 2000 µM", "setting": "[4]; 7 h, read-out: neuronal LDH release", "result": "48.5 ± 14.4", "unit": "%"}, {"measurement": "cytotoxicity at 2000 µM", "setting": "[4]; 24 h, read-out: % cell death (LDH)", "result": 42.2, "unit": "%"}, {"measurement": "cytotoxicity at 2000 µM", "setting": "[4]; read-out: neuronal death in hypoxia with added glutamine", "result": "~40", "unit": "%"}]}]}
